Test results from paper PMC12621043, “Un-LOK-ing a New Approach for Conformational Selective Targeting of STK10 (LOK)” (ACS Medicinal Chemistry Letters, 2025).

Molecular target: T1, STK10 (Homo sapiens, UniProt O94804)
T1 construct: purchased in-house DSF kinase panel (SGC-style construct names; the trailing letter is the construct ID)
Test: PhosphoSens in vitro activity assay
Type: biochemical
Details: ATP 160 μM

T1 sequence (O94804 18-317 limits assumed): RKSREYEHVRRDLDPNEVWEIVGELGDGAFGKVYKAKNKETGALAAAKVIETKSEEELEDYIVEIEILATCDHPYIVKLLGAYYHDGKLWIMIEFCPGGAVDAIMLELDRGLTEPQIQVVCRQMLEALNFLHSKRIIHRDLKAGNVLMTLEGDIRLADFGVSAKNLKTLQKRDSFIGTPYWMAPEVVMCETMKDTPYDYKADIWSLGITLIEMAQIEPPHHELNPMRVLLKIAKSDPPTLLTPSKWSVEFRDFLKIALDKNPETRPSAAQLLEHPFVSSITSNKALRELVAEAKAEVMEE

In order of falling IC50:
1. COc1cccc(CNC(=O)Nc2ccc3cc2OCCOCCNc2ccn4ncc-3c4n2)c1 [compound 30]  6.29 ± 1.49 µM
2. COc1ccccc1CNC(=O)Nc1ccc2cc1OCCOCCNc1ccn3ncc-2c3n1 [compound 29]  5.2 ± 0.81 µM
3. O=C(NCc1ccc(C(F)(F)F)cc1)Nc1ccc2cc1OCCOCCNc1ccn3ncc-2c3n1 [compound 28]  5 ± 0.61 µM
4. O=C(NCc1ccccc1C(F)(F)F)Nc1ccc2cc1OCCOCCNc1ccn3ncc-2c3n1 [compound 27]  2.36 ± 0.6 µM

Molecular target: T2, GSG2A (Homo sapiens, UniProt Q8TF76)
T2 construct: purchased in-house DSF kinase panel (SGC-style construct names; the trailing letter is the construct ID)
T2 sequence (Q8TF76 465-798): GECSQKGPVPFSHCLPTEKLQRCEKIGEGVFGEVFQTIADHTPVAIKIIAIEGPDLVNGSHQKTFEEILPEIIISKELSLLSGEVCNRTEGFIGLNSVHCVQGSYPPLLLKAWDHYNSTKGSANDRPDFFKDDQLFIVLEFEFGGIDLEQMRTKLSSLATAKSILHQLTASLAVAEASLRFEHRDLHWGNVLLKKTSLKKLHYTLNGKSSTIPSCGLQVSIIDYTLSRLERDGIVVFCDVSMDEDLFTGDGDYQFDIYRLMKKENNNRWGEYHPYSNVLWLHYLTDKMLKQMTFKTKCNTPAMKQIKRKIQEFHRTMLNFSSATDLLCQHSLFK
Test: DSF Tm panel
Type: binding
Details: 10 μM compound

In order of rising ΔTm at 10 µM:
1. COc1ccccc1CNC(=O)Nc1ccc2cc1OCCOCCNc1ccn3ncc-2c3n1 [compound 29]  0.6 °C
2. O=C(NCc1ccccc1C(F)(F)F)Nc1ccc2cc1OCCOCCNc1ccn3ncc-2c3n1 [compound 27]  0.7 °C
3. COc1cccc(CNC(=O)Nc2ccc3cc2OCCOCCNc2ccn4ncc-3c4n2)c1 [compound 30]  0.7 °C
4. O=C(NCc1ccc(C(F)(F)F)cc1)Nc1ccc2cc1OCCOCCNc1ccn3ncc-2c3n1 [compound 28]  0.9 °C

Molecular target: T3, CAMKK2B (Homo sapiens, UniProt Q96RR4)
T3 construct: purchased in-house DSF kinase panel (SGC-style construct names; the trailing letter is the construct ID)
Test: DSF Tm panel
Type: binding
Details: 10 μM compound

T3 sequence (Q96RR4 161-449): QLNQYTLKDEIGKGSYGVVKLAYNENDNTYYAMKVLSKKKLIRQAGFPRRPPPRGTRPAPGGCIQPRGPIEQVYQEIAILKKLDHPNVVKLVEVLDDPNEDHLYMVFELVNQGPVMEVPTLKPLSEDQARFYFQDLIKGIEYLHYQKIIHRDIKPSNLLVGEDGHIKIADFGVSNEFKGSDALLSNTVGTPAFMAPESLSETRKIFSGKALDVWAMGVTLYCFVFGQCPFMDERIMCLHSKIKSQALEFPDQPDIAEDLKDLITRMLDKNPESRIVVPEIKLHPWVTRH

In order of rising ΔTm at 10 µM:
1. O=C(NCc1ccccc1C(F)(F)F)Nc1ccc2cc1OCCOCCNc1ccn3ncc-2c3n1 [compound 27]  1.5 °C
2. COc1ccccc1CNC(=O)Nc1ccc2cc1OCCOCCNc1ccn3ncc-2c3n1 [compound 29]  1.5 °C
3. O=C(NCc1ccc(C(F)(F)F)cc1)Nc1ccc2cc1OCCOCCNc1ccn3ncc-2c3n1 [compound 28]  1.8 °C
4. COc1cccc(CNC(=O)Nc2ccc3cc2OCCOCCNc2ccn4ncc-3c4n2)c1 [compound 30]  2 °C

Molecular target: T4, MAPKAPK2A (Homo sapiens, UniProt P49137)
T4 construct: purchased in-house DSF kinase panel (SGC-style construct names; the trailing letter is the construct ID)
Test: DSF Tm panel
Type: binding
Details: 10 μM compound

T4 sequence (P49137 64-325): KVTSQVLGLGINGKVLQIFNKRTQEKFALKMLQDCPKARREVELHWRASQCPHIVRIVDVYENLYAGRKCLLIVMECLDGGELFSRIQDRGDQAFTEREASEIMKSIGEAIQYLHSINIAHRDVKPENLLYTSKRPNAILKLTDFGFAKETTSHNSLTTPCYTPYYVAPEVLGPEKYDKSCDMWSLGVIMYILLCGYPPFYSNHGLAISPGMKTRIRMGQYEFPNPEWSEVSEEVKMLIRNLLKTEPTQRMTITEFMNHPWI

In order of falling ΔTm at 10 µM:
1. O=C(NCc1ccc(C(F)(F)F)cc1)Nc1ccc2cc1OCCOCCNc1ccn3ncc-2c3n1 [compound 28]  0.4 °C
2. COc1ccccc1CNC(=O)Nc1ccc2cc1OCCOCCNc1ccn3ncc-2c3n1 [compound 29]  0.2 °C
3. COc1cccc(CNC(=O)Nc2ccc3cc2OCCOCCNc2ccn4ncc-3c4n2)c1 [compound 30]  0.2 °C
4. O=C(NCc1ccccc1C(F)(F)F)Nc1ccc2cc1OCCOCCNc1ccn3ncc-2c3n1 [compound 27]  0.1 °C

Molecular target: T5, MAP2K7A (Homo sapiens, UniProt O14733)
T5 construct: purchased in-house DSF kinase panel (SGC-style construct names; the trailing letter is the construct ID)
T5 sequence (O14733 120-400): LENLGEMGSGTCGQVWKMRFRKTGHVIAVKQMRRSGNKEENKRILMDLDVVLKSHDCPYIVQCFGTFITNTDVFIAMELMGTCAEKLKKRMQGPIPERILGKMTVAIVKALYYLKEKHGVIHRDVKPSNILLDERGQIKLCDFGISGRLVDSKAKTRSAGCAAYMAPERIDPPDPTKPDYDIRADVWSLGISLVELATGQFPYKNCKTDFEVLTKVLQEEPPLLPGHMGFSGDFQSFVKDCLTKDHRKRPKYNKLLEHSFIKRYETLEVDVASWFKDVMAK
Test: DSF Tm panel
Type: binding
Details: 10 μM compound

In order of rising ΔTm at 10 µM:
1. COc1ccccc1CNC(=O)Nc1ccc2cc1OCCOCCNc1ccn3ncc-2c3n1 [compound 29]  0.1 °C
2. COc1cccc(CNC(=O)Nc2ccc3cc2OCCOCCNc2ccn4ncc-3c4n2)c1 [compound 30]  0.1 °C
3. O=C(NCc1ccccc1C(F)(F)F)Nc1ccc2cc1OCCOCCNc1ccn3ncc-2c3n1 [compound 27]  1 °C
4. O=C(NCc1ccc(C(F)(F)F)cc1)Nc1ccc2cc1OCCOCCNc1ccn3ncc-2c3n1 [compound 28]  1.1 °C

Molecular target: T6, MARK4A (Homo sapiens, UniProt Q96L34)
T6 construct: purchased in-house DSF kinase panel (SGC-style construct names; the trailing letter is the construct ID)
Test: DSF Tm panel
Type: binding
Details: 10 μM compound

T6 sequence (Q96L34 59-310): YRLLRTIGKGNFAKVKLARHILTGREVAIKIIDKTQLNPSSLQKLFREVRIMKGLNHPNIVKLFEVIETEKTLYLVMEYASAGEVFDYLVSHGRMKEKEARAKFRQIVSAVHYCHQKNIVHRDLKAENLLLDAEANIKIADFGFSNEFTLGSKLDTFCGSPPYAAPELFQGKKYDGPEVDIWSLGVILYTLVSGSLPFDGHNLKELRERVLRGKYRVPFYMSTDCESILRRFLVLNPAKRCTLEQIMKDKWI

In order of rising ΔTm at 10 µM:
1. COc1cccc(CNC(=O)Nc2ccc3cc2OCCOCCNc2ccn4ncc-3c4n2)c1 [compound 30]  1.5 °C
2. COc1ccccc1CNC(=O)Nc1ccc2cc1OCCOCCNc1ccn3ncc-2c3n1 [compound 29]  1.9 °C
3. O=C(NCc1ccccc1C(F)(F)F)Nc1ccc2cc1OCCOCCNc1ccn3ncc-2c3n1 [compound 27]  2.7 °C
4. O=C(NCc1ccc(C(F)(F)F)cc1)Nc1ccc2cc1OCCOCCNc1ccn3ncc-2c3n1 [compound 28]  2.7 °C

Test system: RPS6KA5A
Test: DSF Tm panel
Type: binding
Details: 10 μM compound
Procedure: The synthesized urea-based derivatives were evaluated in a panel of kinases by differential scanning fluorescence (DSF) to investigate their selectivity profile. A positive ΔT m in the DSF assay indicates stabilization of the protein upon ligand binding in comparison to its apo state, with higher thermal shifts generally correlating with stronger binding. For this purpose, we used our internal kinase selectivity panel (∼90 kinases) along with staurosporine as a positive control. […]
was performed as previously described.[1,2] Briefly, recombinant protein kinase domains at a concentration of 2 μM were mixed with 10 μM compound in a buffer containing 20 mM HEPES, […]
probe (1 µl per mL). Subsequently, temperature-dependent protein unfolding profiles were […]
The temperature was raised with a step rate of 3 °C per minute. […]
inflection point of the transition curve. […]
previously.[3] In brief, STK10, STK3, STK4 and SLK were obtained as plasmids cloned in […]
Plasmids were transfected into
KD concentration taken from TracerDB (tracerdb.org)[4] were pipetted into white 384-well

With O=C(NCc1ccccc1C(F)(F)F)Nc1ccc2cc1OCCOCCNc1ccn3ncc-2c3n1 [compound 27] the “ΔTm RPS6KA5A” value was 1,3 °C.
For O=C(NCc1ccc(C(F)(F)F)cc1)Nc1ccc2cc1OCCOCCNc1ccn3ncc-2c3n1 [compound 28], the “ΔTm RPS6KA5A” value was 1,5 °C.
For COc1ccccc1CNC(=O)Nc1ccc2cc1OCCOCCNc1ccn3ncc-2c3n1 [compound 29], the “ΔTm RPS6KA5A” value was 0,2 °C.
For COc1cccc(CNC(=O)Nc2ccc3cc2OCCOCCNc2ccn4ncc-3c4n2)c1 [compound 30], the “ΔTm RPS6KA5A” value was 0,3 °C.

Molecular target: T7, MAPK8B (Homo sapiens, UniProt P45983)
T7 construct: purchased in-house DSF kinase panel (SGC-style construct names; the trailing letter is the construct ID)
Test: DSF Tm panel
Type: binding
Details: 10 μM compound

T7 sequence (P45983 1-364): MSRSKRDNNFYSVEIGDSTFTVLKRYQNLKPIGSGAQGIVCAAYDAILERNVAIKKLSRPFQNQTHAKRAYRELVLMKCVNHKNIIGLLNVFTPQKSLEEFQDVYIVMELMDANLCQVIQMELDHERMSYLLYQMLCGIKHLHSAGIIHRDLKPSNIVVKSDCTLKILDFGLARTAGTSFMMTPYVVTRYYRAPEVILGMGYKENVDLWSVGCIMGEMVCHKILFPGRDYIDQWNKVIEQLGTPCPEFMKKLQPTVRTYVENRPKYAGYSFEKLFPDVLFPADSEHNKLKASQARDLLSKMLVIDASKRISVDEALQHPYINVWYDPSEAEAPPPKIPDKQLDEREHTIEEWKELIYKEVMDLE

In order of falling ΔTm at 10 µM:
1. COc1cccc(CNC(=O)Nc2ccc3cc2OCCOCCNc2ccn4ncc-3c4n2)c1 [compound 30]  1.2 °C
2. COc1ccccc1CNC(=O)Nc1ccc2cc1OCCOCCNc1ccn3ncc-2c3n1 [compound 29]  1.1 °C
3. O=C(NCc1ccc(C(F)(F)F)cc1)Nc1ccc2cc1OCCOCCNc1ccn3ncc-2c3n1 [compound 28]  0.9 °C
4. O=C(NCc1ccccc1C(F)(F)F)Nc1ccc2cc1OCCOCCNc1ccn3ncc-2c3n1 [compound 27]  0.5 °C

Molecular target: T8, NEK7A (Homo sapiens, UniProt Q8TDX7)
T8 construct: purchased in-house DSF kinase panel (SGC-style construct names; the trailing letter is the construct ID)
Test: DSF Tm panel
Type: binding
Details: 10 μM compound

T8 sequence (Q8TDX7 whole entry): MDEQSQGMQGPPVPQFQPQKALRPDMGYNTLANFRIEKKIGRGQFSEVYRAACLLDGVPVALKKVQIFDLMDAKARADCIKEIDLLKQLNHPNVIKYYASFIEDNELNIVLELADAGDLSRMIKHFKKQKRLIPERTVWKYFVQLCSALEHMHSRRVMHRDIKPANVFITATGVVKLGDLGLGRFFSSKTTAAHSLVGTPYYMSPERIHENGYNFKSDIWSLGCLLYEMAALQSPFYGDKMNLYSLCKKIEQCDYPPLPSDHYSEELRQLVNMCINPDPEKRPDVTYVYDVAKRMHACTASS

In order of falling ΔTm at 10 µM:
1. O=C(NCc1ccc(C(F)(F)F)cc1)Nc1ccc2cc1OCCOCCNc1ccn3ncc-2c3n1 [compound 28]  2.3 °C
2. O=C(NCc1ccccc1C(F)(F)F)Nc1ccc2cc1OCCOCCNc1ccn3ncc-2c3n1 [compound 27]  2 °C
3. COc1ccccc1CNC(=O)Nc1ccc2cc1OCCOCCNc1ccn3ncc-2c3n1 [compound 29]  1.7 °C
4. COc1cccc(CNC(=O)Nc2ccc3cc2OCCOCCNc2ccn4ncc-3c4n2)c1 [compound 30]  1 °C

Molecular target: T9, MST3A (Homo sapiens, UniProt Q9Y6E0)
T9 construct: purchased in-house DSF kinase panel (SGC-style construct names; the trailing letter is the construct ID)
Test: DSF Tm panel
Type: binding
Details: 10 μM compound

T9 sequence (Q9Y6E0 whole entry): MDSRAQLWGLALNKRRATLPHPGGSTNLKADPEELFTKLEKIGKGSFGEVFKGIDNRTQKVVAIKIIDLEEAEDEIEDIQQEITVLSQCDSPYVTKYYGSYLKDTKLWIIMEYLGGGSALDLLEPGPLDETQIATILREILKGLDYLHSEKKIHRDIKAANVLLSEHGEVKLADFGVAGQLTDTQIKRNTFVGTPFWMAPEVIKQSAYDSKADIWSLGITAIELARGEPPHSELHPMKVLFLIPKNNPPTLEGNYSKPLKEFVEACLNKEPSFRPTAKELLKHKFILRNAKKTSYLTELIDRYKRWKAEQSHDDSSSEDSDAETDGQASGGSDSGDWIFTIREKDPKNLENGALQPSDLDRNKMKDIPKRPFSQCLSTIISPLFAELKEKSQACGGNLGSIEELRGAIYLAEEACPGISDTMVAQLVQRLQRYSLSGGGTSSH

In order of falling ΔTm at 10 µM:
1. O=C(NCc1ccccc1C(F)(F)F)Nc1ccc2cc1OCCOCCNc1ccn3ncc-2c3n1 [compound 27]  -3.4 °C
2. O=C(NCc1ccc(C(F)(F)F)cc1)Nc1ccc2cc1OCCOCCNc1ccn3ncc-2c3n1 [compound 28]  -4.5 °C
3. COc1cccc(CNC(=O)Nc2ccc3cc2OCCOCCNc2ccn4ncc-3c4n2)c1 [compound 30]  -5.1 °C
4. COc1ccccc1CNC(=O)Nc1ccc2cc1OCCOCCNc1ccn3ncc-2c3n1 [compound 29]  -7.7 °C
